In patent US20210130473A1, “TGFßR1 INHIBITOR-ASGR ANTIBODY CONJUGATES AND USES THEREOF” (Silverback Therapeutics, Inc., priority 2019, published 2021):

Legend:
[1] = test system: TGFβ/SMAD Signaling Pathway SBE reporter cell line; test: TGFb reporter assay in HEK293 SBE-LUC reporter cells (luciferase); type: cell-based; conditions: Homo sapiens, key of the table says IC50, read-out: EC50 (the source's name)
Experimental: TGFβ/SMAD Signaling Pathway SBE reporter cell line was obtained from BPS Bioscience. Cells are passed, expanded, and stored in liquid nitrogen as per the supplier's instructions with the exception that growth media is changed to DMEM-C with Geneticin (DMEM supplemented with 10% fetal bovine serum, 1×NEAA, 1 mM Pyruvate, 2 mM glutamine, 50 μg/mL penicillin, 50 U/mL streptomycin and 400 μg/mL of Geneticin). The assay media is MEM supplemented with 0.5% fetal bovine serum, 1×NEAA, 1 mM Pyruvate, 50 μg/mL penicillin and 50 U/mL streptomycin.
Compounds are assayed to measure their activity as ALK5 inhibitors.
The HEK293 SBE-LUC reporter cells from Example 15 were grown in DMEM-C with Geneticin (DMEM supplemented with […], 1×NEAA, 1 mM Pyruvate, 2 mM glutamine, 50 μg/mL penicillin, 50 U/mL streptomycin and 400 ug/mL of Geneticin). The assay media was MEM supplemented with 0.5% fetal bovine serum, 1×NEAA, 1 mM Pyruvate, 50 μg/mL penicillin and 50 U/mL streptomycin.
The HEK293 SBE-LUC reporter cells were harvested from the tissue culture flasks by incubation in small quantity of Versene at room temperature for three to five minutes after the media in the flask is removed and cells rinsed with PBS. Cells were counted and diluted in the assay media at ˜0.8×10^6 cells/mL then 50 uL/well were added to 96-well assay plate. Test samples (at desired concentrations diluted in assay media) were added to assay plate containing the 50 uL/well of cells (or media only), 50 uL per well, and incubated for 5-6 hours at 37° C. in a 5% CO2 humidified incubator. After that time, 15 uL of TGFb diluted to 12.5 ng/mL in the assay media was added to the plate. Controls included TGFb titration (from 25 to 0 ng/mL) without inhibitors, and media only (without cells, inhibitor or TGFb). Plates were incubated at 37° C. in a 5% CO2 humidified incubator for 18h. Luciferase substrate solution was subsequently added at 75 uL per well, incubated in dark with shaking at room temperature for 10 min, and luminescence was measured using a luminometer.

ALK5 = biological target: T1, ALK5 (Homo sapiens, UniProt P36897); test: ALK5 enzyme inhibition assay (casein substrate, 10 uM ATP, 33P-ATP, filter-binding; Reaction Biology Corp); type: biochemical
T1 construct: purchased Reaction Biology Corp (Malvern, Pa.)
T1 sequence (P36897 34-503): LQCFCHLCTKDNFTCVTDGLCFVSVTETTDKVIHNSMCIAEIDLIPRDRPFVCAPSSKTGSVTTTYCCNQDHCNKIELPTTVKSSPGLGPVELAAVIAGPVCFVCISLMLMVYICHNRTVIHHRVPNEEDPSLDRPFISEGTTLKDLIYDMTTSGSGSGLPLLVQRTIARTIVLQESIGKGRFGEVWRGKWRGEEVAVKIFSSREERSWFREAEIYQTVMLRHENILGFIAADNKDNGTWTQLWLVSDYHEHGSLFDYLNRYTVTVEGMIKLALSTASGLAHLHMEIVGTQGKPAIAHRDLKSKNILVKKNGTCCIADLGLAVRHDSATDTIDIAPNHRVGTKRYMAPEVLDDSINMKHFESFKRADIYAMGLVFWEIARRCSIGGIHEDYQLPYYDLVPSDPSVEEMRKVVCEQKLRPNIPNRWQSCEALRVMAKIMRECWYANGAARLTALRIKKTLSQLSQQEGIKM
Experimental: ALK5 enzyme inhibition assays were performed by Reaction Biology Corp (Malvern, Pa.). 1 mg/mL of peptide substrate (casein) and 10 uM ATP were prepared in a mixture of fresh reaction buffer. The kinase was delivered into the substrate solution which was gently mixed. Compounds in 100% DMSO were added to the kinase reaction mixture by Acoustic technology (Echo550; nanoliter range) and the mixture was incubated for 20 min at room temperature. ^33P-ATP (Specific activity 10 uCi/uL) was added into the reaction mixture to initiate the reaction and the reaction mixture was incubated for 2 hours at room temperature. Radioactivity was detected by filter-binding method and kinase activity data were expressed as the percent remaining kinase activity in test samples compared to vehicle (dimethyl sulfoxide) reactions. IC50 values and curve fits were obtained using Prism (GraphPad Software).

Row | Structure (SMILES) | IC50 [1] | IC50 (ALK5; Table 12) | IC50 (ALK5; Table 11)
1 | Cc1cccc(-c2nc(CNC34CC(C3)C4)[nH]c2-c2ccc3ncnn3c2)n1 [Compound 1.9] | 10 to 100 nM | 1000 to 10000 nM | 
2 | Cc1cccc(-c2nc(CNc3ccc4c(c3)C(N)CC4)[nH]c2-c2ccc3ncnn3c2)n1 (stereo not shown) [Compound 1.21] | 100 to 1000 nM | 100 to 1000 nM | 
3 | Cc1cccc(-c2nc(CNc3ccc4c(c3)CCC4N)[nH]c2-c2ccc3ncnn3c2)n1 (stereo not shown) [Compound 1.5] | 100 to 1000 nM | 100 to 1000 nM | 
4 | Cc1cccc(-c2nc(CNc3cccc4c3CNC4)[nH]c2-c2ccn3ncnc3c2)n1 [Compound 1.31] | 100 to 1000 nM | 100 to 1000 nM | 
5 | Cc1cccc(-c2nc(CN[C@H]3CCc4ccccc43)[nH]c2-c2ccn3ncnc3c2)n1 [Compound 1.34] | 100 to 1000 nM | 100 to 1000 nM | 
6 | Cc1cccc(-c2nc(CN[C@@H](C)c3ccccc3)[nH]c2-c2ccc3ncnn3c2)n1 [Compound 12] | 100 to 1000 nM |  | 1000 to 10000 nM
7 | Cc1cccc(-c2nc(C34CCC(N)(CC3)CC4)[nH]c2-c2ccc3ncnn3c2)n1 [Compound 1.55] | 1000 to 10000 nM | 1000 to 10000 nM | 
8 | Cc1cccc(-c2nc(C3CCCNC3)[nH]c2-c2ccc3ncnn3c2)n1 (stereo not shown) [Compound 1.48] | 100 to 1000 nM | 1000 to 10000 nM | 
9 | Cc1cccc(-c2nc(CNCc3ccc(Cl)c(Cl)c3)[nH]c2-c2ccc3ncnn3c2)n1 [Compound 4] | 100 to 1000 nM |  | 100 to 1000 nM
10 | Cc1cccc(-c2nc(CNCc3ccccc3C)[nH]c2-c2ccc3ncnn3c2)n1 [Compound 21] | 0.1 to 10 nM |  | 0.1 to 50 nM
11 | Cc1cccc(-c2nc(CNCc3cccc(Cl)c3)[nH]c2-c2ccc3ncnn3c2)n1 [Compound 2] | 10 to 100 nM |  | 100 to 1000 nM
12 | Cc1cccc(-c2nc(CNC3CCCOC3)[nH]c2-c2ccc3ncnn3c2)n1 (stereo not shown) [Compound 1.15] | 10 to 100 nM | 100 to 1000 nM | 
13 | Cc1cccc(-c2nc(CNCc3ccccc3F)[nH]c2-c2ccc3ncnn3c2)n1 [Compound 18] | 0.1 to 10 nM |  | 0.1 to 50 nM
14 | CCc1ccccc1CNCc1nc(-c2cccc(C)n2)c(-c2ccc3ncnn3c2)[nH]1 [Compound 22] | 0.1 to 10 nM |  | 0.1 to 50 nM
15 | COc1ccccc1CNCc1nc(-c2cccc(C)n2)c(-c2ccc3ncnn3c2)[nH]1 [Compound 17] | 10 to 100 nM |  | 50 to 100 nM
16 | Cc1cccc(-c2nc(CNCc3ccccc3)[nH]c2-c2ccc3ncnn3c2)n1 [Compound 1, 1-(5-([1,2,4]triazolo[1,5-a]pyridin-6-yl)-4-(6-methylpyridin-2-yl)-1H-imidazol-2-yl)-N-benzylmethanamine] | 0.1 to 10 nM |  | 100 to 1000 nM
17 | Cc1cccc(-c2nc(CN[C@H]3CCCC[C@@H]3F)[nH]c2-c2ccn3ncnc3c2)n1 [Compound 1.32] | 100 to 1000 nM | 10 to 100 nM | 
18 | Cc1cccc(-c2nc(CNC(c3ccccc3)c3ccccc3)[nH]c2-c2ccc3ncnn3c2)n1 [Compound 13] | 0.1 to 10 nM |  | 50 to 100 nM
19 | COc1ccc(OC)c(CNCc2nc(-c3cccc(C)n3)c(-c3ccc4ncnn4c3)[nH]2)c1 [Compound 9] | 10 to 100 nM |  | 100 to 1000 nM
20 | Cc1cccc(-c2nc(CNC3CCCCC3C)[nH]c2-c2ccc3ncnn3c2)n1 (stereo not shown) [Compound 1.16] | 10 to 100 nM | 100 to 1000 nM | 
21 | Cc1cccc(-c2nc(CN[C@H](C)c3ccccc3)[nH]c2-c2ccc3ncnn3c2)n1 [Compound 11] | 10 to 100 nM |  | 100 to 1000 nM
22 | Cc1cccc(-c2nc(CN[C@@H](CO)c3ccccc3)[nH]c2-c2ccc3ncnn3c2)n1 [Compound 14] | 10 to 100 nM |  | 50 to 100 nM
23 | Cc1cccc(-c2nc(CN[C@H]3CCCC[C@H]3F)[nH]c2-c2ccn3ncnc3c2)n1 [Compound 1.33] | 100 to 1000 nM | 100 to 1000 nM | 
24 | Cc1cccc(-c2nc(CNCc3ccccc3C#N)[nH]c2-c2ccc3ncnn3c2)n1 [Compound 20] | 100 to 1000 nM |  | 1000 to 10000 nM
25 | Cc1cccc(-c2nc(CNCc3cc(Cl)ccc3Cl)[nH]c2-c2ccc3ncnn3c2)n1 [Compound 5] | 10 to 100 nM |  | 50 to 100 nM

The next lines start with the values.

Row | IC50 [1] | IC50 (ALK5; Table 12) | IC50 (ALK5; Table 11) | Structure (SMILES)
26 | 10 to 100 nM |  | 100 to 1000 nM | Cc1cccc(-c2nc(CNCc3ccccc3-c3ccncc3)[nH]c2-c2ccc3ncnn3c2)n1 [Compound 42]
27 | 0.1 to 10 nM |  | 50 to 100 nM | Cc1cccc(-c2nc(CNCc3ccccc3Oc3cccnc3)[nH]c2-c2ccc3ncnn3c2)n1 [Compound 54]
28 | 0.1 to 10 nM |  | 50 to 100 nM | Cc1cccc(-c2nc(CNCCN(C)c3ccccc3)[nH]c2-c2ccc3ncnn3c2)n1 [Compound 67]
29 | 0.1 to 10 nM |  | 50 to 100 nM | Cc1cccc(-c2nc(CNCc3ccccc3CC(F)(F)F)[nH]c2-c2ccc3ncnn3c2)n1 [Compound 27]
30 | 0.1 to 10 nM |  | 0.1 to 50 nM | Cc1cccc(-c2nc(CNCc3ccccc3OC(F)(F)F)[nH]c2-c2ccc3ncnn3c2)n1 [Compound 26]
31 | 0.1 to 10 nM |  | 0.1 to 50 nM | Cc1cccc(-c2nc(CNCc3ccccc3-c3ccc(F)cc3)[nH]c2-c2ccc3ncnn3c2)n1 [Compound 35]
32 | 0.1 to 10 nM |  | 0.1 to 50 nM | Cc1cccc(-c2nc(CNCCc3ccccc3F)[nH]c2-c2ccc3ncnn3c2)n1 [Compound 59]
33 | 0.1 to 10 nM |  | 100 to 1000 nM | Cc1cccc(-c2nc(CNCc3ccccc3N(C)C)[nH]c2-c2ccc3ncnn3c2)n1 [Compound 25]
34 | 100 to 1000 nM |  | 100 to 1000 nM | Cc1cccc(-c2nc(CNCc3ccccc3-c3ccc(CNC(=O)OC(C)(C)C)cc3)[nH]c2-c2ccc3ncnn3c2)n1 [Compound 31]
35 | 10 to 100 nM |  | 100 to 1000 nM | Cc1cccc(-c2nc(CNCc3cccc(-c4ccccc4)c3C)[nH]c2-c2ccc3ncnn3c2)n1 [Compound 49]
36 | 100 to 1000 nM |  | 100 to 1000 nM | Cc1cccc(-c2nc(CNCc3ccccc3-c3ccccc3CN)[nH]c2-c2ccc3ncnn3c2)n1 [Compound 32]
37 | 0.1 to 10 nM |  | 50 to 100 nM | Cc1cccc(-c2nc(CNCCN(C)c3ccccc3)[nH]c2-c2ccc3ncccc3n2)n1 [Compound 85]
38 | 0.1 to 10 nM |  | 50 to 100 nM | Cc1cccc(-c2nc(CNCc3ccccc3)[nH]c2-c2ccc3ncccc3c2)n1 [Compound 90]
39 | 0.1 to 10 nM |  | 100 to 1000 nM | Cc1cccc(-c2nc(CNCCNc3ccccc3)[nH]c2-c2ccc3ncnn3c2)n1 [Compound 66]
40 | 10 to 100 nM |  | 0.1 to 50 nM | Cc1cccc(-c2nc(CNCCc3c(F)cccc3F)[nH]c2-c2ccc3c(c2)OCO3)n1 [Compound 81]
41 | 100 to 1000 nM |  | 100 to 1000 nM | Cc1cccc(-c2nc(CNCc3ccccc3-c3ccccc3)[nH]c2-c2ccnc3ccccc23)n1 [Compound 69]
42 | 0.1 to 10 nM |  | 50 to 100 nM | Cc1cccc(-c2nc(CNCc3ccccc3C)[nH]c2-c2ccc3ncccc3n2)n1 [Compound 83]
43 | 100 to 1000 nM |  | 100 to 1000 nM | Cc1cccc(-c2nc(CNCc3cccc(-c4ccccc4)c3)[nH]c2-c2ccc3ncnn3c2)n1 [Compound 51]
44 | 10 to 100 nM |  | 100 to 1000 nM | Cc1cccc(CNCc2nc(-c3cccc(C)n3)c(-c3ccc4ncnn4c3)[nH]2)c1 [Compound 50]
45 | 0.1 to 10 nM |  | 50 to 100 nM | COc1cccc(CNCc2nc(-c3cccc(C)n3)c(-c3ccc4ncnn4c3)[nH]2)c1C [Compound 46]
46 | 0.1 to 10 nM |  | 0.1 to 50 nM | Cc1cccc(-c2nc(CNCCc3c(F)cccc3F)[nH]c2-c2ccc3nccnc3c2)n1 [Compound 82]
47 | 0.1 to 10 nM |  | 0.1 to 50 nM | Cc1cccc(-c2nc(CNCc3ccccc3C(O)C(F)(F)F)[nH]c2-c2ccc3ncnn3c2)n1 (stereo not shown) [Compound 28]
